According to ChEMBL document CHEMBL3872210, “Synthesis and antiproliferative mechanism of action of pyrrolo[3',2':6,7] cyclohepta[1,2-d]pyrimidin-2-amines as singlet oxygen photosensitizers” (Eur J Med Chem, 2016):

Experiments:
[1] = Photocytotoxicity against human HeLa cells assessed as reduction in cell survival irradiated with 1.5 J/cm2 UV-light for 5 mins measured after 48 hrs by MTT assay; assay type: functional, cell-based; details: light or radiation study
[2] = Selectivity index, ratio of CC50 for cytotoxicity against human HeLa cells to EC50 for photocytotoxicity against human HeLa cells; assay type: toxicity, cell-based; details: read-out: Ratio CC50/EC50
[3] = Selectivity index, ratio CC50 for cytotoxicity against human MCF7 cells to EC50 for photocytotoxicity against human MCF7 cells; assay type: toxicity, cell-based; details: read-out: Ratio CC50/EC50
[4] = Dark toxicity against human HeLa cells assessed as reduction in cell survival measured after 30 mins by MTT assay; assay type: cell-based
[5] = Photocytotoxicity against human HT-29 cells assessed as reduction in cell survival irradiated with 1.5 J/cm2 UV-light for 5 mins measured after 48 hrs by MTT assay; assay type: functional, cell-based; details: HT-29, light or radiation study
[6] = Dark toxicity against human HT-29 cells assessed as reduction in cell survival measured after 30 mins by MTT assay; assay type: cell-based
[7] = Selectivity index, ratio CC50 for cytotoxicity against human HT-29 cells to EC50 for photocytotoxicity against human HT-29 cells; assay type: toxicity, cell-based; details: read-out: Ratio CC50/EC50
[8] = Photocytotoxicity against human MCF7 cells assessed as reduction in cell survival irradiated with 1.5 J/cm2 UV-light for 5 mins measured after 48 hrs by MTT assay; assay type: functional, cell-based; details: MCF7, light or radiation study
[9] = Dark toxicity against human MCF7 cells assessed as reduction in cell survival measured after 30 mins by MTT assay; assay type: cell-based
[10] = system: MCF7; experiment: Dark toxicity against human MCF7 cells assessed as increase in production of radical oxygen species at 1 to 4 uM after 2 hrs by H2DCFDA dye based fluorescence assay; assay type: cell-based; details: mcf7, 2 h
[11] = Photocytotoxicity against human MCF7 cells assessed as increase in production of radical oxygen species at 4 uM pretreated for 30 mins followed by 1.5 J/cm2 UV-light irradiation for 5 mins measured after 2 hrs by H2DCFDA dye based fluorescence assay relative to control; assay type: functional

CCOC(=O)c1cc2c(n1Cc1ccc(OC)cc1)-c1nc(Nc3ccccc3)ncc1CCC2
EC50 [1]: 0.18 µM
selectivity ratio [2]: > 559
selectivity ratio [3]: > 117
CC50 at 0.5 h [4]: > 100 µM
EC50 [5]: 0.07 µM
CC50 at 0.5 h [6]: > 100 µM
selectivity ratio [7]: > 1470
EC50 [8]: 0.86 µM
CC50 at 0.5 h [9]: > 100 µM

CCOC(=O)c1cc2c(n1C)-c1nc(N)ncc1CCC2
EC50 [1]: 0.72 µM
selectivity ratio [2]: > 139
selectivity ratio [3]: > 65
CC50 at 0.5 h [4]: > 100 µM
EC50 [5]: 1.72 µM
CC50 at 0.5 h [6]: > 100 µM
selectivity ratio [7]: > 58
EC50 [8]: 1.54 µM
CC50 at 0.5 h [9]: > 100 µM

NC(=O)c1cc2c(n1Cc1ccccc1)-c1nc(NC3CCCCC3)ncc1CCC2
EC50 [1]: 0.22 µM
selectivity ratio [2]: > 463
selectivity ratio [3]: > 569
CC50 at 0.5 h [4]: > 100 µM
EC50 [5]: 0.37 µM
CC50 at 0.5 h [6]: > 100 µM
selectivity ratio [7]: > 270
EC50 [8]: 0.18 µM
CC50 at 0.5 h [9]: > 100 µM

COc1ccc(Cn2c(C(N)=O)cc3c2-c2nc(N)ncc2CCC3)cc1
EC50 [1]: 1.14 µM
selectivity ratio [2]: > 88
selectivity ratio [3]: > 31
CC50 at 0.5 h [4]: > 100 µM
EC50 [5]: 2 µM
CC50 at 0.5 h [6]: > 100 µM
selectivity ratio [7]: > 50
EC50 [8]: 3.26 µM
CC50 at 0.5 h [9]: > 100 µM

CCOC(=O)c1cc2c(n1Cc1ccccc1)-c1nc(N)ncc1CCC2
EC50 [1]: 0.22 µM
selectivity ratio [2]: > 455
selectivity ratio [3]: 93
CC50 at 0.5 h [4]: > 100 µM
EC50 [5]: 0.28 µM
CC50 at 0.5 h [6]: 79.2 µM
selectivity ratio [7]: 284
EC50 [8]: 0.79 µM
CC50 at 0.5 h [9]: 73.6 µM

NC(=O)c1cc2c(n1Cc1ccccc1)-c1nc(N)ncc1CCC2
EC50 [1]: 2.09 µM
selectivity ratio [2]: > 48
selectivity ratio [3]: > 27
CC50 at 0.5 h [4]: > 100 µM
EC50 [5]: 2.17 µM
CC50 at 0.5 h [6]: > 100 µM
selectivity ratio [7]: > 46
EC50 [8]: 3.69 µM
CC50 at 0.5 h [9]: > 100 µM

CCOC(=O)c1cc2c(n1Cc1ccccc1)-c1nc(Nc3ccccc3)ncc1CCC2
EC50 [1]: 0.28 µM
selectivity ratio [2]: > 355
selectivity ratio [3]: > 412
CC50 at 0.5 h [4]: > 100 µM
EC50 [5]: 0.7 µM
CC50 at 0.5 h [6]: > 100 µM
selectivity ratio [7]: > 143
EC50 [8]: 0.24 µM
CC50 at 0.5 h [9]: > 100 µM

COc1ccc(Cn2c(C(N)=O)cc3c2-c2nc(Nc4ccccc4)ncc2CCC3)cc1
EC50 [1]: 0.16 µM
selectivity ratio [2]: > 610
selectivity ratio [3]: > 358
CC50 at 0.5 h [4]: > 100 µM
EC50 [5]: 0.28 µM
CC50 at 0.5 h [6]: > 100 µM
selectivity ratio [7]: > 360
EC50 [8]: 0.28 µM
CC50 at 0.5 h [9]: > 100 µM

CCOC(=O)c1cc2c(n1C)-c1nc(Nc3ccccc3)ncc1CCC2
EC50 [1]: 0.1 µM
selectivity ratio [2]: > 1040
selectivity ratio [3]: > 709
CC50 at 0.5 h [4]: > 100 µM
EC50 [5]: 0.29 µM
CC50 at 0.5 h [6]: > 100 µM
selectivity ratio [7]: > 348
EC50 [8]: 0.14 µM
CC50 at 0.5 h [9]: > 100 µM

CCOC(=O)c1cc2c(n1Cc1ccc(OC)cc1)-c1nc(NC3CCCCC3)ncc1CCC2
EC50 [1]: 0.07 µM
selectivity ratio [2]: > 1360
selectivity ratio [3]: > 952
CC50 at 0.5 h [4]: > 100 µM
EC50 [5]: 0.14 µM
CC50 at 0.5 h [6]: > 100 µM
selectivity ratio [7]: > 735
EC50 [8]: 0.11 µM
CC50 at 0.5 h [9]: > 100 µM

COc1ccc(Cn2c(C(N)=O)cc3c2-c2nc(NC4CCCCC4)ncc2CCC3)cc1
EC50 [1]: 0.12 µM
selectivity ratio [2]: > 813
selectivity ratio [3]: > 549
CC50 at 0.5 h [4]: > 100 µM
EC50 [5]: 0.41 µM
CC50 at 0.5 h [6]: > 100 µM
selectivity ratio [7]: > 243
EC50 [8]: 0.18 µM
CC50 at 0.5 h [9]: > 100 µM

Cn1c(C(N)=O)cc2c1-c1nc(Nc3ccccc3)ncc1CCC2
EC50 [1]: 1.12 µM
selectivity ratio [2]: > 90
selectivity ratio [3]: > 20
CC50 at 0.5 h [4]: > 100 µM
EC50 [5]: 1.85 µM
CC50 at 0.5 h [6]: > 100 µM
selectivity ratio [7]: > 54
EC50 [8]: 4.96 µM
CC50 at 0.5 h [9]: > 100 µM

CCOC(=O)c1cc2c(n1Cc1ccc(OC)cc1)-c1nc(N)ncc1CCC2
EC50 [1]: 0.32 µM
selectivity ratio [2]: > 312
selectivity ratio [3]: > 150
CC50 at 0.5 h [4]: > 100 µM
EC50 [5]: 0.29 µM
CC50 at 0.5 h [6]: > 100 µM
selectivity ratio [7]: > 348
EC50 [8]: 0.67 µM
CC50 at 0.5 h [9]: > 100 µM

Cn1c(C(N)=O)cc2c1-c1nc(NC3CCCCC3)ncc1CCC2
EC50 [1]: 0.82 µM
selectivity ratio [2]: > 121
selectivity ratio [3]: 41
CC50 at 0.5 h [4]: > 100 µM
EC50 [5]: 1.5 µM
CC50 at 0.5 h [6]: > 100 µM
selectivity ratio [7]: > 67
EC50 [8]: 1.85 µM
CC50 at 0.5 h [9]: 75.2 µM

NC(=O)c1cc2c(n1Cc1ccccc1)-c1nc(Nc3ccccc3)ncc1CCC2
EC50 [1]: 0.25 µM
selectivity ratio [2]: > 397
selectivity ratio [3]: 64
CC50 at 0.5 h [4]: > 100 µM
EC50 [5]: 0.36 µM
CC50 at 0.5 h [6]: > 100 µM
selectivity ratio [7]: > 281
EC50 [8]: 1.04 µM
CC50 at 0.5 h [9]: 66.5 µM

CCOC(=O)c1cc2c(n1Cc1ccccc1)-c1nc(NC3CCCCC3)ncc1CCC2
EC50 [1]: 0.06 µM
selectivity ratio [2]: > 1670
selectivity ratio [3]: > 1050
Activity [10]: Non-Toxic
CC50 at 0.5 h [4]: > 100 µM
Activity [11]: 198%
EC50 [5]: 0.08 µM
CC50 at 0.5 h [6]: > 100 µM
selectivity ratio [7]: > 1240
EC50 [8]: 0.1 µM
CC50 at 0.5 h [9]: > 100 µM
